From PubChem BioAssay (NCI) come the findings set out here.

Some test systems named below: CCRF-CEM leukemia; UACC-62 melanoma; SK-MEL-28 melanoma; SK-MEL-2 melanoma; NCI/ADR-RES ovarian; RPMI-8226 leukemia; MCF7 breast; MALME-3M melanoma; NCI-H522 lung; CAKI-1 renal.
Holding throughout (assay): DTP human tumour cell line panel, 48 h

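These data come from cells grown in 96-well plates and exposed to compound for 48 hours at five concentrations. At the GI50, growth is halved. Definition used: TGI = concentration required for complete inhibition of growth.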 Bounds are passed on as bounds.

As to `CCOc1ccc(NC2=CC(=O)C(=O)c3ccccc32)cc1`, the TGI in the assay with CCRF-CEM leukemia was 56.8 µM; in the assay with UACC-62 melanoma it was 3.2 µM; in the assay on SK-MEL-28 melanoma it was 7.22 µM; in the assay on SK-MEL-2 melanoma it was 16.2 µM; with NCI/ADR-RES ovarian it was 11.3 µM; in the assay on RPMI-8226 leukemia, 26.2 µM. Further, the TGI in the assay on MCF7 breast amounted to 3.93 µM; with MALME-3M melanoma, 3.56 µM; in the assay with NCI-H522 lung it was 3.39 µM; in the assay on CAKI-1 renal, 20.9 µM.

For `c1ccc(-c2n(Cc3ccc4ccccc4n3)cc[n+]2Cc2ccc3ccccc3c2)cc1`, the GI50 with CCRF-CEM leukemia was 1.22 µM; in the assay on UACC-62 melanoma it was 0.631 µM; in the assay with SK-MEL-28 melanoma it was 0.936 µM; in the assay on SK-MEL-2 melanoma, 1.2 µM; in the assay on NCI/ADR-RES ovarian it was 19.5 µM; in the assay with RPMI-8226 leukemia, 0.288 µM. Also, the GI50 in the assay on MCF7 breast is 1.21 µM; with MALME-3M melanoma, 0.81 µM; with NCI-H522 lung, 0.706 µM; with CAKI-1 renal, 1.59 µM. Moreover, the TGI in the assay on CCRF-CEM leukemia was found to be 6.18 µM; in the assay with UACC-62 melanoma, 2.06 µM; with SK-MEL-28 melanoma, 2.84 µM; with SK-MEL-2 melanoma it was 3.12 µM; in the assay on NCI/ADR-RES ovarian, 66.8 µM; in the assay on RPMI-8226 leukemia, 1.52 µM. Moreover, the TGI worked out at 3.43 µM in the assay on MCF7 breast, 2.78 µM in the assay on MALME-3M melanoma, 3.42 µM in the assay on NCI-H522 lung and 3.54 µM in the assay with CAKI-1 renal.

As to `COC1=CC(=O)C(C2(OC(C)C)OC(=O)C(Cl)=C2Cl)=CC1=O` (stereo not given), the TGI with CCRF-CEM leukemia was over 100 µM; in the assay on UACC-62 melanoma, over 100 µM; in the assay on SK-MEL-28 melanoma, over 100 µM; with SK-MEL-2 melanoma, 98.8 µM; in the assay on NCI/ADR-RES ovarian, over 100 µM; in the assay with RPMI-8226 leukemia, over 100 µM. In addition, the TGI in the assay with MCF7 breast was over 100 µM; in the assay on MALME-3M melanoma it was over 100 µM; in the assay on NCI-H522 lung, 96 µM; with CAKI-1 renal, over 100 µM.

For `CCNC(=O)C#Cc1ccc2c(C(=Nc3ccc(CN(C)C)cc3)c3ccccc3)c(O)[nH]c2c1`, the GI50 is 0.00204 µM in the assay on CCRF-CEM leukemia; 0.00709 µM in the assay on UACC-62 melanoma; 0.00911 µM in the assay with SK-MEL-28 melanoma; 0.0323 µM in the assay with SK-MEL-2 melanoma; 1.7 µM in the assay with NCI/ADR-RES ovarian; 0.434 µM in the assay on RPMI-8226 leukemia. In addition, the GI50 in the assay on MCF7 breast is 0.0458 µM; with MALME-3M melanoma, 0.00358 µM; with NCI-H522 lung it was 1.26 µM; in the assay on CAKI-1 renal, 0.119 µM. Moreover, the TGI in the assay on CCRF-CEM leukemia was 5.58 µM; in the assay on UACC-62 melanoma, 0.0775 µM; in the assay with SK-MEL-28 melanoma it was 0.102 µM; in the assay on SK-MEL-2 melanoma, 0.228 µM; in the assay with NCI/ADR-RES ovarian, over 10 µM; in the assay with RPMI-8226 leukemia it was 3.19 µM. In addition, the TGI in the assay on MCF7 breast is 4.59 µM; in the assay with MALME-3M melanoma, 0.0268 µM; in the assay with NCI-H522 lung, over 5.39 µM; in the assay with CAKI-1 renal, over 9.05 µM.

In the case of `CCOC(=O)n1cc(C2=C(c3ccc(OC)c(OC)c3)COC2=O)c2ccccc21`, the GI50 was 0.0367 µM in the assay with CCRF-CEM leukemia; 0.0436 µM with UACC-62 melanoma; 0.271 µM in the assay on SK-MEL-28 melanoma; 0.402 µM in the assay on SK-MEL-2 melanoma; 0.0415 µM in the assay on NCI/ADR-RES ovarian; 0.0327 µM with RPMI-8226 leukemia. For the same compound, the GI50 in the assay on MCF7 breast was 0.0336 µM; in the assay with MALME-3M melanoma it was 0.0666 µM; with NCI-H522 lung, 0.0389 µM; in the assay on CAKI-1 renal it was 0.0465 µM. Further, the TGI in the assay with CCRF-CEM leukemia was over 100 µM; in the assay on UACC-62 melanoma it was over 100 µM; in the assay with SK-MEL-28 melanoma, over 100 µM; in the assay on SK-MEL-2 melanoma, over 100 µM; in the assay on NCI/ADR-RES ovarian it was over 100 µM; in the assay on RPMI-8226 leukemia it was 1.65 µM. For the same compound, the TGI with MCF7 breast is over 100 µM; in the assay on MALME-3M melanoma, over 100 µM; in the assay with NCI-H522 lung, over 33.3 µM; with CAKI-1 renal, 37.1 µM.

As to `COc1ccc2ncnc(Nc3ccc(OCc4ccccc4)cc3)c2c1`, the GI50 in the assay with CCRF-CEM leukemia is 8.49 µM; with UACC-62 melanoma, 6.12 µM; in the assay with SK-MEL-28 melanoma, 9.36 µM; in the assay on SK-MEL-2 melanoma, 9.97 µM; in the assay on NCI/ADR-RES ovarian, 7.56 µM; in the assay with RPMI-8226 leukemia, 7.58 µM. The GI50 with MCF7 breast is 7.49 µM; in the assay on MALME-3M melanoma, 10.1 µM; with NCI-H522 lung, 4.95 µM; with CAKI-1 renal it was 3.85 µM. Also, the TGI in the assay with CCRF-CEM leukemia was over 25 µM; in the assay with UACC-62 melanoma it was over 18.1 µM; in the assay on SK-MEL-28 melanoma, over 25 µM; with SK-MEL-2 melanoma, over 25 µM; in the assay with NCI/ADR-RES ovarian, over 25 µM; with RPMI-8226 leukemia, over 25 µM. Also, the TGI in the assay with MCF7 breast was over 25 µM; in the assay with MALME-3M melanoma, over 25 µM; in the assay with NCI-H522 lung, over 17.1 µM; in the assay on CAKI-1 renal it was over 17.2 µM.

Broadly, the TGI is the concentration at which net growth stops. Higher therefore signals lower sensitivity of the cells. Usually GI50 stands for the concentration that inhibits growth by half.
